Laboratory results published in PubChem BioAssay (NCI).
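Assay format: 96-well plates, 48-hour exposure. Abbreviation: GI50, concentration required for 50% inhibition of growth. TGI marks complete inhibition of growth.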

Legend:
Experiment in all cases: NCI tumour cell line growth inhibition, 48 h
OVCAR-8 ovarian = test system: OVCAR-8 ovarian
SN12C renal = test system: SN12C renal
HOP-92 NSCLC = test system: HOP-92 NSCLC
PC-3 prostate = test system: PC-3 prostate
HOP-62 NSCLC = test system: HOP-62 NSCLC
NCI-H226 lung = test system: NCI-H226 lung
SK-MEL-2 melanoma = test system: SK-MEL-2 melanoma
HL-60(TB) leukemia = test system: HL-60(TB) leukemia

SMILES	GI50 (OVCAR-8 ovarian) [µM]	TGI (OVCAR-8 ovarian) [µM]	GI50 (SN12C renal) [µM]	TGI (SN12C renal) [µM]	GI50 (HOP-92 NSCLC) [µM]	TGI (HOP-92 NSCLC) [µM]	GI50 (PC-3 prostate) [µM]	TGI (PC-3 prostate) [µM]	GI50 (HOP-62 NSCLC) [µM]	TGI (HOP-62 NSCLC) [µM]	GI50 (NCI-H226 lung) [µM]	TGI (NCI-H226 lung) [µM]	GI50 (SK-MEL-2 melanoma) [µM]	TGI (SK-MEL-2 melanoma) [µM]	GI50 (HL-60(TB) leukemia) [µM]	TGI (HL-60(TB) leukemia) [µM]
O=C(Nc1ccc2ncnc(Nc3ccc(Oc4cccc(F)c4)c(Cl)c3)c2c1)c1ccc(CN2CCOCC2)cc1	2.34	7.69	2.6	> 100	2.38	15.4	2.24	10.6	2.58	8.47	5.12	33.7	2.27	5.46	2.69	7.88
CC(=Nc1ccccc1)C1=C(O)C(Cc2cccc(F)c2)NC1=O (stereo not drawn)	0.122	> 100	0.129	> 100	0.0242	> 21.1	0.0399	> 100	0.0557	> 100	5.25	> 100	0.0626	> 100	0.0334	–
COC12C=C/C(=C(/C(=O)OCCSc3ccnn3C)C(=O)CCCCCCCCC3(OC)C=C/C(=C(/C(=O)OCCSc4ccnn4C)C(=O)CCCCCCCC1)O3)O2	1	6.79	1.05	5.64	0.847	2.55	1.51	> 32.5	0.95	2.81	0.827	1.76	0.928	2.8	0.929	2.63
COc1ccc(-c2nsc3c2NC(=O)CC3c2ccc3c(c2)OCCO3)cc1 (stereo not drawn)	1.02	> 100	0.776	> 100	0.356	> 100	0.528	> 100	0.585	> 100	5.19	> 26.6	7.24	> 100	0.326	12.5
O=C1NC(O)c2ccccc2O1 (stereo not drawn)	–	> 100	–	> 100	–	> 100	–	> 100	–	> 100	–	> 100	–	> 100	–	> 100
CCn1c(-c2c(Cl)cc(O)cc2Cl)cc2c(Cl)cc(O)cc21	–	18.7	–	> 100	–	59.4	–	> 100	–	31.5	–	> 100	–	17.1	–	26.2
Cc1c(N)nc([C@H](CC(N)=O)NC[C@H](N)C(N)=O)nc1C(=O)N[C@H](C(=O)N[C@H](C)[C@@H](O)CC(=O)N[C@H](C(=O)NC(O[C@@H]1O[C@@H](C)[C@@H](N)[C@@H](O)[C@H]1O)C(O)c1nc(-c2nc(C(=O)NCCCCN)cs2)cs1)[C@@H](C)O)[C@@H](O[C@@H]1O[C@@H](CO)[C@@H](O)[C@H](O)[C@@H]1O[C@H]1O[C@H](CO)[C@@H](O)[C@H](OC(N)=O)[C@@H]1O)c1c[nH]cn1 (stereo partly drawn)	–	> 50	–	> 50	–	> 50	–	> 50	–	> 50	–	> 50	–	> 50	–	> 50
C=C1C(=O)O[C@H]2[C@H]1CC/C(Cn1cc(Cc3c[nH]c4ccccc34)nn1)=C\CC[C@@]1(C)O[C@@H]21	3.44	10.7	1.98	4.42	2	3.75	1.88	3.81	3.86	14.9	2.1	4.75	1.98	3.95	2.02	4.74
